The record followed here is US20220257635A1, “INJECTABLE NUTRITIONAL SUPPLEMENT” (CHEMVET AUSTRALIA PTY LTD, priority 2019, published 2022).

This series can be described thus: Stability storage of the Comparative Example 1 formulation at 5° C. and 40° C. (75% RH), vitamin B12 analysed. It counts as physicochemical. Conditions: in formulation of Table 2; for Vitamin B12 T = 1 month (mg/mL) 5° C.: 1 month at 5° C.; for Vitamin B12 T = 1 month (mg/mL) 40° C.: 1 month at 40° C. (75% RH); for Vitamin B12 T = 0 (mg/mL) 5° C.: T = 0, 5° C. sample; for Vitamin B12 T = 0 (mg/mL) 40° C.: T = 0, 40° C. (75% RH) sample. The method, then: To the formulation of Table 1, water-soluble disodium Copper EDTA and disodium Zinc EDTA, were successfully added at the rate of 107 g/L and 285 g/L respectively and then topped up with water to the required volume.
This formulation was sent to Chemical Analysis, and analysed at 0 time and placed on stability storage at 5° C. and 40° C. (75% RH).

Regarding Cyanocobalamin, the “Vitamin B12 T = 1 month (mg/mL) 5° C.” value is recorded as 0.23 mg/mL, the “Vitamin B12 T = 1 month (mg/mL) 40° C.” value was found to be 0.14 mg/mL, the “Vitamin B12 T = 0 (mg/mL) 5° C.” value turned out to be 0.24 mg/mL and the “Vitamin B12 T = 0 (mg/mL) 40° C.” value came to 0.24 mg/mL.

Turning to Hydroxocobalamin Acetate, the “Vitamin B12 T = 1 month (mg/mL) 5° C.” value amounted to 0.26 mg/mL, the “Vitamin B12 T = 1 month (mg/mL) 40° C.” value was found to be 0.03 mg/mL, the “Vitamin B12 T = 0 (mg/mL) 5° C.” value amounted to 0.49 mg/mL and the “Vitamin B12 T = 0 (mg/mL) 40° C.” value is reported as 0.49 mg/mL.
